The record followed here is US20230242585A1, “IMMUNOMODULATORS” (Bristol-Myers Squibb Company, priority 2020, published 2023).

Starred links: 1 amine or outer side, 2 acyl side, 3 side chain; linkers in the order of their positions; H or OH if unused. Positions of bridges follow the written chain, without caps; N, C: chain ends. Non-standard residues stand in square brackets, D forms with d. Residues, ends and D or L forms follow the SMILES beside them. X29 = O=C([C@H](CNC[C@H](O)[C@@H](O)[C@H](O[C@H]1O[C@H](CO)[C@@H](O)[C@H](O)[C@H]1O)[C@H](O)CO)N[*:1])[*:2]; X53 = O=C([C@H](CCNC[C@H](O)[C@@H](O)[C@H](O)C(O)CO[C@H]1O[C@H](CO)[C@H](O)[C@H](O)[C@H]1O)N[*:1])[*:2]; X39 = O=C([C@H](CNC[C@H](O)[C@@H](O)[C@H](O)C(O)CO[C@H]1O[C@H](CO)[C@H](O)[C@H](O)[C@H]1O)N[*:1])[*:2]; X25 = CC(=O)N[C@@H](CNCC[C@H](N[*:1])C(=O)[*:2])[C@@H](O)[C@H](O)[C@H](O)CO; X24 = CC(=O)N[C@@H](CNC[C@H](N[*:1])C(=O)[*:2])[C@@H](O)[C@H](O)[C@H](O)CO; Trp(1-CH2COOH) = N[C@@H](Cc1cn(CC(=O)O)c2ccccc12)C(=O)O; X55 = O=C([C@H](CCNCc1cccc2ccc3ccccc3c12)N[*:1])[*:2]; X12 = O=C([C@H](CNCc1cccc2ccc3ccccc3c12)N[*:1])[*:2]; Hyp = O=C(O)[C@@H]1C[C@@H](O)CN1; NMeNle = CCCC[C@H](NC)C(=O)O; NMeA = CN[C@@H](C)C(=O)O; Dab = NCC[C@H](N)C(=O)O

The target of this test is T1, PD-1/PD-L1 (Homo sapiens, UniProt Q9NZQ7).
T1 construct: TVMV protease site (linker) (C); made in house; host or cells: HEK293T cells
T1 sequence (Q9NZQ7 18-239): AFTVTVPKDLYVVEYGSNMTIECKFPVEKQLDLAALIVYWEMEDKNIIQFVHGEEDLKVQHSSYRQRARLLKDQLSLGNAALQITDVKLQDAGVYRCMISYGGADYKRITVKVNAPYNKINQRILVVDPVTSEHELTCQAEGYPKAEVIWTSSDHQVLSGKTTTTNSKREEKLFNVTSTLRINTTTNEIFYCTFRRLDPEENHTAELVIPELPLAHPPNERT
In words: PD-1/PD-L1 Homogenous Time-Resolved Fluorescence (HTRF) binding assay. Particulars: PD-L1-His 10 nM, PD-1-Ig 20 nM. The text has this: The ability of the compounds of formula (I) to bind to PD-L1 was investigated using a PD-1/PD-L1 Homogenous Time-Resolved Fluorescence (HTRF) binding assay.
The interaction of PD-1 and PD-L1 can be assessed using soluble, purified preparations of the extracellular domains of the two proteins. The PD-1 and PD-L1 protein extracellular domains were expressed as fusion proteins with detection tags, for PD-1, the tag was the Fc portion of Immunoglobulin (PD-1-Ig) and for PD-L1 it was the 6 histidine motif (PD-L1-His). All binding studies were performed in an HTRF assay buffer consisting of dPBS supplemented with 0.1% […] bovine serum albumin and 0.05% (v/v) Tween-20. For the h/PD-L1-His binding assay, inhibitors were pre-incubated with PD-L1-His (10 nM final) for 15 m in 4 µl of assay buffer, followed by addition of PD-1-Ig (20 nM final) in 1 µl of assay buffer and further incubation for 15 m. HTRF detection was achieved using europium crypate-labeled anti-Ig (1 nM final) and allophycocyanin (APC) labeled anti-His (20 nM final). Antibodies were diluted in HTRF detection buffer and 5 µl was dispensed on top of the binding reaction. The reaction mixture was allowed to equilibrate for 30 minutes and the resulting signal (665 nm/620 nm ratio) was obtained using an EnVision fluorometer. Additional binding assays were established between the human proteins PD-1-Ig/PD-L2-His (20 & 5 nM, respectively) and CD80-His/PD-L1-Ig (100 & 10 nM, respectively).
Recombinant Proteins: Human PD-1 (25-167) with a C-terminal human Fc domain of immunoglobulin G (Ig) epitope tag [hPD-1 (25-167)-3S-IG] and human PD-L1 (18-239) with a C-terminal His epitope tag [hPD-L1(18-239)-TVMV-His] were expressed in HEK293T cells and purified sequentially by ProteinA affinity chromatography and size exclusion chromatography. Human PD-L2-His and CD80-His was obtained through commercial sources.
Table 1 lists the IC50 values for representative examples of this disclosure measured in the PD-1/PD-L1 Homogenous Time-Resolved Fluorescence (HTRF) binding assay.
(In general: TR-FRET usually uses a lanthanide donor and a delayed reading to cut background.)
`CCCC[C@H]1C(=O)N(C)[C@@H](CCCC)C(=O)N[C@@H](CC(C)C)C(=O)N[C@H](C(=O)NCC(N)=O)CSCC(=O)N[C@@H](Cc2ccc(O)cc2)C(=O)N(C)[C@@H](C)C(=O)N[C@@H](CC(N)=O)C(=O)N2CCC[C@H]2C(=O)N[C@@H](CNCc2cccc3ccc4ccccc4c23)C(=O)N[C@@H](CC(C)C)C(=O)N2C[C@H](O)C[C@H]2C(=O)N[C@@H](Cc2c[nH]c3ccccc23)C(=O)N[C@@H](CCN)C(=O)N[C@@H](Cc2cn(CC(=O)O)c3ccccc23)C(=O)N1C` [Example 1005] ({CH2CO}-Y[NMeA]NP[X12]L[Hyp]W[Dab][Trp(1-CH2COOH)][NMeNle][NMeNle]LCG-NH2; thioether N-14): the IC50 (commonly the concentration that gives 50% inhibition) turned out to be 120 nM.
Molecule `CCCC[C@H]1C(=O)N(C)[C@@H](CCCC)C(=O)N[C@@H](CC(C)C)C(=O)N[C@H](C(=O)NCC(N)=O)CSCC(=O)N[C@@H](Cc2ccc(O)cc2)C(=O)N(C)[C@@H](C)C(=O)N[C@@H](CC(N)=O)C(=O)N2CCC[C@H]2C(=O)N[C@@H](CNC[C@H](NC(C)=O)[C@@H](O)[C@H](O)[C@H](O)CO)C(=O)N[C@@H](CC(C)C)C(=O)N2C[C@H](O)C[C@H]2C(=O)N[C@@H](Cc2c[nH]c3ccccc23)C(=O)N[C@@H](CCNC[C@H](NC(C)=O)[C@@H](O)[C@H](O)[C@H](O)CO)C(=O)N[C@@H](Cc2cn(CC(=O)O)c3ccccc23)C(=O)N1C` [Example 2009] ({CH2CO}-Y[NMeA]NP[X24]L[Hyp]W[X25][Trp(1-CH2COOH)][NMeNle][NMeNle]LCG-NH2; thioether N-14) showed an IC50 of 5.7 nM.
As for `CCCC[C@H]1C(=O)N(C)[C@@H](CCCC)C(=O)N[C@@H](CC(C)C)C(=O)N[C@H](C(=O)NCC(N)=O)CSCC(=O)N[C@@H](Cc2ccc(O)cc2)C(=O)N(C)[C@@H](C)C(=O)N[C@@H](CC(N)=O)C(=O)N2CCC[C@H]2C(=O)N[C@@H](CNCc2cccc3ccc4ccccc4c23)C(=O)N[C@@H](CC(C)C)C(=O)N2C[C@H](O)C[C@H]2C(=O)N[C@@H](Cc2c[nH]c3ccccc23)C(=O)N[C@@H](CCNCc2cccc3ccc4ccccc4c23)C(=O)N[C@@H](Cc2cn(CC(=O)O)c3ccccc23)C(=O)N1C` [Example 1022] ({CH2CO}-Y[NMeA]NP[X12]L[Hyp]W[X55][Trp(1-CH2COOH)][NMeNle][NMeNle]LCG-NH2; thioether N-14), the figure is 1400 nM.
Then `CCCC[C@H]1C(=O)N(C)[C@@H](CCCC)C(=O)N[C@@H](CC(C)C)C(=O)N[C@H](C(=O)NCC(N)=O)CSCC(=O)N[C@@H](Cc2ccc(O)cc2)C(=O)N(C)[C@@H](C)C(=O)N[C@@H](CC(N)=O)C(=O)N2CCC[C@H]2C(=O)N[C@@H](CNC[C@H](O)[C@@H](O)[C@H](O[C@H]2O[C@H](CO)[C@@H](O)[C@H](O)[C@H]2O)[C@H](O)CO)C(=O)N[C@@H](CC(C)C)C(=O)N2C[C@H](O)C[C@H]2C(=O)N[C@@H](Cc2c[nH]c3ccccc23)C(=O)N[C@@H](CCN)C(=O)N[C@@H](Cc2cn(CC(=O)O)c3ccccc23)C(=O)N1C` [Example 2011] ({CH2CO}-Y[NMeA]NP[X29]L[Hyp]W[Dab][Trp(1-CH2COOH)][NMeNle][NMeNle]LCG-NH2; thioether N-14), with 8.8 nM.
As for `CCCC[C@H]1C(=O)N(C)[C@@H](CCCC)C(=O)N[C@@H](CC(C)C)C(=O)N[C@H](C(=O)NCC(N)=O)CSCC(=O)N[C@@H](Cc2ccc(O)cc2)C(=O)N(C)[C@@H](C)C(=O)N[C@@H](CC(N)=O)C(=O)N2CCC[C@H]2C(=O)N[C@@H](CNC[C@H](O)[C@@H](O)[C@H](O)C(O)CO[C@H]2O[C@H](CO)[C@H](O)[C@H](O)[C@H]2O)C(=O)N[C@@H](CC(C)C)C(=O)N2C[C@H](O)C[C@H]2C(=O)N[C@@H](Cc2c[nH]c3ccccc23)C(=O)N[C@@H](CCNC[C@H](O)[C@@H](O)[C@H](O)C(O)CO[C@H]2O[C@H](CO)[C@H](O)[C@H](O)[C@H]2O)C(=O)N[C@@H](Cc2cn(CC(=O)O)c3ccccc23)C(=O)N1C` (some centres unmarked) [Example 2041] ({CH2CO}-Y[NMeA]NP[X39]L[Hyp]W[X53][Trp(1-CH2COOH)][NMeNle][NMeNle]LCG-NH2; thioether N-14), the figure is 7.2 nM.
